Where “and” joins values, the source holds several entries; their conditions need not be identical. Equal entries are not always repeated.
Key:
[1] = test system: Adriamycin (ADR)-induced nephropathy in Balb/c mice; assay: ADR nephropathy: WBC, hemoglobin, hematocrit, ALT, AST; type: in vivo, mouse
[2] = test system: Adriamycin (ADR)-induced nephropathy in Balb/c mice; assay: ADR nephropathy: kidney cortex lipids (cholesterol ester, total cholesterol, triglycerides, Oil-red O); type: in vivo, mouse
Experimental: OCT embedded kidney cortex samples were cryosectioned at 4 μm thickness and stained with Oil-Red O-isopropanol solution (Electron Microscopy Science, PA) diluted 6:4 in water, and then counterstained with Hematoxylin Harris Hg Free (VWR, PA). Sections were then evaluated using a light microscope (Olympus BX 41, Tokyo, Japan).
Snap frozen kidney cortex samples were homogenized in 2 mM potassium phosphate buffer, pH 7, (10 µl buffer/mg tissue) using a glass douncer on ice. 100 μl of the homogenate were mixed thoroughly with 1 ml of hexane:isopropanol (3:2;v:v) per volume of tissue homogenate. The aqueous (pellet) and organic (supernatant) phases were separated by centrifugation at 12,000 × g for 5 min. Pellets (aqueous phase) were dried, reconstituted in 8 M urea, 0.1% SDS, 0.1 M NaOH, and total proteins were quantified by the BCA method (Thermofisher). The organic phase was dried by exposure to nitrogen. Lipids were then reconstituted in 100 µl isopropanol:NP-40 (9:1;v:v). Triglyceride content was assayed using a colorimetric kit according to the manufacturer’s instructions (Cayman Chemical USA). Total cholesterol and CE content were assayed using an enzymatic fluorometric method. For total cholesterol measurement, extracts were diluted 1:100 in assay buffer (100 mM potassium phosphate, 50 mM NaCl, 5 mM cholic acid, 0.1% Triton […], pH 7.4) containing cholesterol oxidase (1 U/ml), cholesterol esterase (1 U/ml), horseradish peroxidase (1 U/ml), and Amplex Red (75 µM). The reactions were incubated at 37 °C for 30 min in a black opaque 96-well plate (Greiner) and fluorescence was measured in a microplate reader (Spectramax i3X, Molecular Devices) at 530 nm excitation and 580 emission.
For CE determination, 150 µl of the assay buffer described above, supplemented with bovine liver catalase (45 U/ml) and cholesterol oxidase (1 U/ml), was added to 25 μl of sample and incubated overnight at 37 °C to deplete free cholesterol leaving only cholesterol esters. Then, 75 µl of cholesterol ester detection reagent (1 U/ml cholesterol oxidase, 4 U/ml cholesterol esterase, 24 U/ml horseradish peroxidase, 300 µM Amplex Red) was added. The reaction was incubated at 37 °C for 30 min and the fluorescence signal was measured as described above. Internal standards included samples containing 1 mM of cholesterol and 5 μM of cholesterol oleate in order to verify the completeness of the enzymatic decomposition of free cholesterol as well as assay sensitivity and specificity.

[3] = ADR-induced nephropathy, 28 days treatment, 25th quartile
[4] = ADR-induced nephropathy, 28 days treatment, 75th quartile
[5] = ADR-induced nephropathy, 28 days treatment, group maximum
[6] = ADR-induced nephropathy, 28 days treatment, group median
[7] = ADR-induced nephropathy, 28 days treatment, group minimum
[8] = ADR-induced nephropathy, 28 days treatment, individual mouse values

O=C(N[C@@H]1CCCC[C@H]1O)c1cnc(OCC(F)(F)F)c(-c2ccc(Cl)c(Cl)c2)c1 [Cpd G]
ADR-induced increase of ALT and AST ([1]; 28 days): partially attenuated
ALT, Median (IQR) ([1]; ADR-induced nephropathy): 213 (105-239) U/L
ALT, Range ([1]; ADR-induced nephropathy): 90-317 U/L
AST, Median (IQR) ([1]; ADR-induced nephropathy): 213 (156-220) U/L
AST, Range ([1]; ADR-induced nephropathy): 124-401 U/L
HTC, Median (IQR) ([1]; ADR-induced nephropathy): 51 (48-52) %
HTC, Range ([1]; ADR-induced nephropathy): 46-57%
Hgb, Median (IQR) ([1]; ADR-induced nephropathy): 13 g/dL
Hgb, Range ([1]; ADR-induced nephropathy): 12.2 to 13.7 g/dL
WBC, Median (IQR) ([1]; ADR-induced nephropathy): 5.2 (3.4-6.5) x103cells/µL
WBC, Range ([1]; ADR-induced nephropathy): 2.5-6.5 x103cells/µL
HTC, QR(25) [1, 3]: 49.25%
Hgb, QR(25) [1, 3]: 12.6 g/dL
WBC, QR(25) [1, 3]: 3.85 x 10^3 cells/ul
HTC, QR(75) [1, 4]: 51.75%
Hgb, QR(75) [1, 4]: 13.4 g/dL
WBC, QR(75) [1, 4]: 6.425 x 10^3 cells/ul
HTC, Max [1, 5]: 57%
Hgb, Max [1, 5]: 13.7 g/dL
WBC, Max [1, 5]: 9.8 x 10^3 cells/ul
HTC, Median [1, 6]: 51%
Hgb, Median [1, 6]: 13.1 g/dL
WBC, Median [1, 6]: 5.45 x 10^3 cells/ul
HTC, Min [1, 7]: 46%
Hgb, Min [1, 7]: 12.2 g/dL
WBC, Min [1, 7]: 2.5 x 10^3 cells/ul
Alanine Aminotransferase (ALT) [1, 8]: 220 U/dL and 105 U/dL and 213 U/dL and 156 U/dL and 239 U/dL and 317 U/dL and 90 U/dL
Aspartate Aminotransferase (AST) [1, 8]: 217 U/dL and 156 U/dL and 401 U/dL and 213 U/dL and 220 U/dL and 124 U/dL
Hematocrit HTC [1, 8]: 57% and 51% and 54% and 47% and 46% and 49% and 52% and 50%
White Blood Cells WBC [1, 8]: 9.8 x 10^3 cells/ul and 5.5 x 10^3 cells/ul and 6.2 x 10^3 cells/ul and 2.5 x 10^3 cells/ul and 5.2 x 10^3 cells/ul and 6.5 x 10^3 cells/ul and 3.4 x 10^3 cells/ul and 5.4 x 10^3 cells/ul and 8.9 x 10^3 cells/ul
KIDNEY CORTEX TOTAL CHOLESTEROL ([2]; ADR model, individual animals): 79.82 nmol Chol./mg protein and 76.54 nmol Chol./mg protein and 118.96 nmol Chol./mg protein and 209.77 nmol Chol./mg protein and 137.06 nmol Chol./mg protein and 201.43 nmol Chol./mg protein and 118.77 nmol Chol./mg protein and 118.29 nmol Chol./mg protein and 88.73 nmol Chol./mg protein and 117.18 nmol Chol./mg protein
KIDNEY CORTEX TRIGLYCERIDES ([2]; ADR model, individual animals): 45.04 nmol Triglyceride /mg protein and 65 nmol Triglyceride /mg protein and 36.98 nmol Triglyceride /mg protein and 31.32 nmol Triglyceride /mg protein and 30.95 nmol Triglyceride /mg protein and 56.24 nmol Triglyceride /mg protein and 28.95 nmol Triglyceride /mg protein and 62.65 nmol Triglyceride /mg protein and 57.76 nmol Triglyceride /mg protein
Cholesterol ester content in kidneys from individual animals ([2]; ADR, day 28 of treatment, paired with ACR of same animal): 0.13 nmol CE/mg and 0.19 nmol CE/mg and 0.14 nmol CE/mg and 0.15 nmol CE/mg and 0.03 nmol CE/mg and 0.01 nmol CE/mg and 0.17 nmol CE/mg
Cholesterol esters in renal cortex, ADR model ([2]; Cpd G 28 days after ADR): reduced accumulation of cholesterol esters

— publication PMC8329197, “Compounds targeting OSBPL7 increase ABCA1-dependent cholesterol efflux preserving kidney function in two models of kidney disease” (Nature Communications, 2021)
